No end group written: not given here.
Tests used:
5XFAD mice = assay: Brain amyloid pathology and neuroinflammation markers in 5XFAD mice (thioflavin-S, Western blot); assay type: in vivo, mouse
Text: We initiated treatment of 5XFAD and wild-type control mice at 6 month age at a time point when they had also developed very significant amyloid burden in addition to the spatial memory deficits noted above (Fig. 4A). […] There was significant reduction in the amyloid plaque numbers, and the overall amyloid burden (as judged by the area covered by plaques) in these brain regions in the peptide treated mice (Fig. 5B, p < 0.05). […] (Fig. 5C,D, p < 0.05).
After completion of treatments, the mouse brains were harvested and the right hemisphere was frozen for biochemical analysis (Western blot, ELISA), and the left hemisphere was fixed with PAF for further processed. The thicker brain sections were stained thioflavin-S for detecting Aβ plaques.
After completion of treatments, all mice were sacrificed with an overdose of isoflourane anesthetic, perfused transcardially with saline using a pump, and the brains were harvested. The right hemisphere was frozen for biochemical analysis (Western blot, ELISA), and the left hemisphere was fixed with PAF for 24 h at 4 C. These brain tissues were further processed with modified CLARITY protocol (http://www.chunglabresources.com/clarity/). Briefly, the fixed brain tissue was transferred to hydrogel monomer solution (4% acrylamide in PBS) at 4 C for 24 h, and subsequently to a 24-well plate, merged in fresh hydrogel solution and the tissue brought to 37 C till formation of the gel. Thick sagittal slices (400 μm) were cut on an HR2 Slicer (Sigman Electronic, Germany). The thicker brain sections were cleared with 8% SDS in PBS for 24 h, followed by 0.3% Triton X-100 in PBS for 24 h. Blocking the section in 2%BSA-10% goat serum for 4h. A modified thioflavin-S staining was used for detecting Aβ plaques. […] Images were visualized using fluorescence microscopy (Axioplan-2, Carl Zeiss Ltd). Amyloid plaque size and area were analyzed with Image J software.
Frozen brain tissues or cultured cells were homogenized in cold RIPA buffer with protease inhibitors and proteins were quantified with BCA assay (BioRad, Mississauga, ON, Canada). […]

AMY3 receptor = molecular target: T1, AMY3 receptor (Homo sapiens, UniProt O60896+P30988); assay: Block of hAmylin-evoked cAMP generation in HEK-AMY3 cells; assay type: cell-based; details: peptide 30 min then hAmylin 1 pM–10 µM 30 min, peptides 10 µM (Fig. 1E legend), 1 µM (supplement method)
T1 construct: expressed in transfected cells
T1 sequence (P30988 25-474): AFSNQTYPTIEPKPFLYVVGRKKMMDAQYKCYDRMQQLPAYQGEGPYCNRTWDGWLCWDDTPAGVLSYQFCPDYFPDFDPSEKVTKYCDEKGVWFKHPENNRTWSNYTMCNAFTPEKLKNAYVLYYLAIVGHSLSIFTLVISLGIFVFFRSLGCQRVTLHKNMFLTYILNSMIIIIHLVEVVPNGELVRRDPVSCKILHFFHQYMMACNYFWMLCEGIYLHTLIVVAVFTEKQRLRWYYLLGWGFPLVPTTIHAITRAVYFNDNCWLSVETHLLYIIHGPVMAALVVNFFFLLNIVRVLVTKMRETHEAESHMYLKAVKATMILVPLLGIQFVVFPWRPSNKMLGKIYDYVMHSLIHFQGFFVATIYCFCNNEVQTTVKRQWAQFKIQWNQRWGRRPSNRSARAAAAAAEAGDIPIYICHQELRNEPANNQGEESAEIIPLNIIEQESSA
T1 sequence (O60896 24-148): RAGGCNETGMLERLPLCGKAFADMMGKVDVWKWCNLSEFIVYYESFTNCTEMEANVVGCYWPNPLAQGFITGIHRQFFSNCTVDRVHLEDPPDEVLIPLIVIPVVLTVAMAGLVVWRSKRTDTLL
Text: Human amylin is a potent agonist at amylin receptor stimulating cAMP production in cells. In the first in vitro bioassay, we examined ability of R5 and R14 to block the hAmylin-evoked cAMP generation in HEK-AMY3 cells. R11 peptide served as a negative control. […] In a second in vitro assay, we examined whether peptides R5, and R14 could protect human fetal neurons (HFNs) and N2a (mouse neuroblastoma cell line) from Αβ1–42 induced cytotoxicity.
A shorter peptide library was derived from AC253 peptide sequence comprising 12–14 amino acid peptides. […] To determine the activity of these shorter peptides to block AMY3 receptor signaling, cellular cAMP levels (measured using a parameter cyclic AMP assay kit, R&D Systems) and phosphorylation ERK1/2 (Western blot) were measured. We assessed neuroprotective properties of the peptide fragments against Aβ cytotoxicity in vitro using the MTT assay in N2a cell line and human fetal neurons (HFNs), which were prepared from 12- to 15-gestational week fetuses with approval of the Human Ethics Research Board at the University of Alberta as previously reported[17],[19].
For cAMP measurements, HEK-AMY3 cells were plated on 24-well plates overnight. […] Cellular cAMP levels were measured using a parameter cyclic AMP assay kit (R&D Systems) according to the manufacturer’s instructions. […]

[1] = Observation for off-target effects and body weight during 5 weeks of treatment; assay type: in vivo, mouse; details: mice
Experimental: The determination of injection amount of R5 (200 µg/kg) was based on achieving equimolar concentrations as the full length peptide, cAC253[21] and prior studies that used pramlintide injections[22],[23]. The normal mouse circulated endogenous amylin level is 0.7 ± 0.4 pmol/L in plasma[32] and based upon our in vitro data (Fig. 1E) unlikely to perturb the function of peptides in vivo at these concentrations.

[2] = 5 weeks ip, normalized to β-actin, n = 6, p < 0.05

Substance	amyloid proteins (Aβ, 6E10) in cortical tissue, Western blot, versus normal saline (5XFAD mice; [2])	neuroinflammation markers CD68, NLPR3 and caspase-1, Western blot (5XFAD mice; [2])	amyloid pathology in the cortex, hippocampus and thalamus versus saline (5XFAD mice; ip three times a week for 5 weeks, thioflavin-S)	block of hAmylin-evoked cAMP increases (AMY3 receptor)	body weight ([1]; 5 weeks of ip treatment)	signs of off-target effects (sedation, gait, feeding or drinking, weight loss, hair loss, grooming) ([1]; 5 weeks of ip treatment three times a week)
SQELHRLQTYPR-NH2 [R5]	significantly reduced	significantly attenuated	significantly reduced amyloid pathology	blocked the cAMP increases in a dose-dependent manner	no significant changes in body weight	None of the mice receiving cAC253 or R5 showed any signs of off-target effects
LGRLSQELHRLQTYPRTNTGSNTY-NH2 (C-terminus assumed) [AC253, reference compound]	–	–	–	inhibited	–	–

Reference: paper PMC6662706, “Short amylin receptor antagonist peptides improve memory deficits in Alzheimer’s disease mouse model” (Scientific Reports, 2019)
